The target of test [1] is T1, Amyloid-beta precursor protein (Homo sapiens, UniProt P05067). The test can be described thus: Inhibition of HFIP-induced human recombinant amyloid beta (1 to 40 residues) aggregation expressed in Escherichia coli at 25 uM measured over 24 hrs by ThT-based fluorescence spectroscopic method relative to control.
The target in test [2] is T1, Amyloid-beta precursor protein. Nature of the test: Inhibition of HFIP-induced human recombinant amyloid beta (1 to 42 residues) aggregation expressed in Escherichia coli at 25 uM measured over 24 hrs by ThT-based fluorescence spectroscopic method relative to control.
Test [3] shares this target.
Description: Inhibition of HFIP-induced human recombinant amyloid beta (1 to 40 residues) aggregation expressed in Escherichia coli measured over 24 hrs by ThT-based fluorescence spectroscopic method
The next test has as its target Acetylcholinesterase (Homo sapiens, UniProt P22303).
Another test has as its target Cholinesterase (Homo sapiens, UniProt P06276).
A short description of test [4]: Antioxidant activity assessed as DPPH radical scavenging activity at 50 uM relative to control. The class given is functional. On the technique in general: The DPPH test is a chemical assay of radical scavenging.
In test [5] the target is T1, Amyloid-beta precursor protein. The test can be described thus: Inhibition of HFIP-induced human recombinant amyloid beta (1 to 40 residues) aggregation expressed in Escherichia coli assessed as reduction in amyloid beta fibril load measured after 24 hrs by ThT fluorescence assay.
The target is the same in test [6]. The test can be described thus: Inhibition of HFIP-induced human recombinant amyloid beta (1 to 40 residues) aggregation expressed in Escherichia coli assessed as reduction in amyloid beta fibril load at 25 uM after 24 hrs by transmission electron microscopic method.
Test [7] has the same target. Nature of the test: Potency index, ratio of curcumin IC50 to test compound IC50 for HFIP-induced human recombinant amyloid beta (1 to 40 residues) aggregation.
Test [8] has the same target. The test can be described thus: Inhibition of HFIP-induced human recombinant amyloid beta (1 to 42 residues) aggregation expressed in Escherichia coli assessed as reduction in amyloid beta fibril load measured after 24 hrs by ThT fluorescence assay.
Test [9] shares this target. The test can be described thus: Inhibition of HFIP-induced human recombinant amyloid beta (1 to 42 residues) aggregation expressed in Escherichia coli assessed as reduction in amyloid beta fibril load at 25 uM after 24 hrs by transmission electron microscopic method.

Active and inactive are the calls of the source. The rule behind the calls is not given here.

As a reminder, the inhibition is the percentage by which the read-out fell short of the control. By IC50 is commonly meant the concentration at which inhibition is half-maximal.

Sequence of Acetylcholinesterase (P22303 whole entry): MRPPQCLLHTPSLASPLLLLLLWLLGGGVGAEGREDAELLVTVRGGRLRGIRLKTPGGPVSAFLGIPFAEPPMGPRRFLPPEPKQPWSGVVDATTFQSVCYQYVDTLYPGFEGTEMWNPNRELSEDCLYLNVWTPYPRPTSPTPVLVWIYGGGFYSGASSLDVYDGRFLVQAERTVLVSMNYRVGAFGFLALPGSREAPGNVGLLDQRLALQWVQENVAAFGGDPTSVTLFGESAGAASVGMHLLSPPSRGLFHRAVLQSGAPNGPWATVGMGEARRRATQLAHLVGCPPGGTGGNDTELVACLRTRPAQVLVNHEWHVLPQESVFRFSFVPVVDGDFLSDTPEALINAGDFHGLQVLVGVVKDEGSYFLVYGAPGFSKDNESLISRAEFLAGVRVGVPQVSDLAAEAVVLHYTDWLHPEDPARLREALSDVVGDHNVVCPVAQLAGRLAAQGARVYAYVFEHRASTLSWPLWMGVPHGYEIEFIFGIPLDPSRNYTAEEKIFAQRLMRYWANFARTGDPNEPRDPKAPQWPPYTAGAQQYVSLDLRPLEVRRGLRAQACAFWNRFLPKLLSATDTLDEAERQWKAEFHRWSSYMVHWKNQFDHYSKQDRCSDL
Sequence of Cholinesterase (P06276 whole entry): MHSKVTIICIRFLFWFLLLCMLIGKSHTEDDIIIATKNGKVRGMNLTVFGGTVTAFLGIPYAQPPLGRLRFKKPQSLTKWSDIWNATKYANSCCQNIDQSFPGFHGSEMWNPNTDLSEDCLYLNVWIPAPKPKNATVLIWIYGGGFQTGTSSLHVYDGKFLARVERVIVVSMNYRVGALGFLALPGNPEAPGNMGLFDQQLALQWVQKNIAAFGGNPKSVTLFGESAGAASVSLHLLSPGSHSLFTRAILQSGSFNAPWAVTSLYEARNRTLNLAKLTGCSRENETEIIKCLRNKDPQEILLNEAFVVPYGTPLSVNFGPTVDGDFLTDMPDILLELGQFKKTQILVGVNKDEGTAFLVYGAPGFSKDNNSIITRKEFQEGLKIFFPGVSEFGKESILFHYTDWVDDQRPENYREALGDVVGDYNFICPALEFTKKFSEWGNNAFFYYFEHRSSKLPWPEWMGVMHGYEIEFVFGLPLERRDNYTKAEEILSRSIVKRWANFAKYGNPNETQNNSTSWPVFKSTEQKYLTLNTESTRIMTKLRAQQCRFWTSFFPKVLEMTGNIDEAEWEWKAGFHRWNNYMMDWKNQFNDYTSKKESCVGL
T1 sequence (P05067 whole entry, the tested form may be a part): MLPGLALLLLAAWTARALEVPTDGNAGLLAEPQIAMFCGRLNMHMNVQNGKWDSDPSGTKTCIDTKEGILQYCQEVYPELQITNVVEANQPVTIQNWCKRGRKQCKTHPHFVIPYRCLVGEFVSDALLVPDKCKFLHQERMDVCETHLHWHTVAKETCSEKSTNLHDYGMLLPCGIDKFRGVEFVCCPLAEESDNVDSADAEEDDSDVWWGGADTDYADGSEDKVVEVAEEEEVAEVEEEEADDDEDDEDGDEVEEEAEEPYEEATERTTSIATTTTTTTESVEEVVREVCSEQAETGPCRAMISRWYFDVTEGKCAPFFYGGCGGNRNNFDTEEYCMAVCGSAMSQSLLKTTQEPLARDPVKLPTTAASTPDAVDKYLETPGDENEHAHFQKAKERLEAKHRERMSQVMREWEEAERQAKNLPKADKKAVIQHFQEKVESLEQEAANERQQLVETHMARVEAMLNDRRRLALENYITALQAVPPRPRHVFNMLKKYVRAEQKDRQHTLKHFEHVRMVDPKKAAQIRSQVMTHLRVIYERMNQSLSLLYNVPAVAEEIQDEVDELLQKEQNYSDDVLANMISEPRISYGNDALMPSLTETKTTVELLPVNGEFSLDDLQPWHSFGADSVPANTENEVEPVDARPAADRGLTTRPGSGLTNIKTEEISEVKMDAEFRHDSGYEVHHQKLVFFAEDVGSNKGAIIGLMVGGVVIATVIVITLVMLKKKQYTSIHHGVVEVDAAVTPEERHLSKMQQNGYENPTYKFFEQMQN
Description for Acetylcholinesterase: Inhibition of human AChE using acetylthiocholine iodide as substrate preincubated for 5 mins followed by substrate addition measured for 60 to 300 secs by Ellman's method

Regarding `Nc1nc(NCCc2ccccc2)c2ccccc2n1`, the inhibition in test [1] is over 50%; in test [2], 37%.
With `COc1ccc(CCNc2nc(NC3CC3)nc3ccccc23)cc1OC`, the inhibition is over 50% in test [1] and 25% in [2]. In addition, the IC50 came to 4.9 µM in test [3], 7.2 µM on Acetylcholinesterase and 5.6 µM against Cholinesterase.
In the case of `CCCNc1nc(NCc2ccc(OC)c(OC)c2)c2ccccc2n1`, the inhibition in [1] is over 50%. The figures for the IC50 (in [3]; on Acetylcholinesterase; at Cholinesterase) were 1.7 µM, 5.6 µM and 30.4 µM, respectively. For the same compound, the inhibition result in test [2] is “inactive”.
With `COc1ccc(CNc2nc(N)nc3ccccc23)cc1OC`, the values for the inhibition in [1] and in test [2] were over 50% and 34%, respectively. In [3], this compound showed an IC50 of 8.4 µM.
For `CC(C)Nc1nc(NCc2ccccc2)c2ccccc2n1`, the figures for the inhibition in [1] and in [2] were over 50% and 13%, respectively. The IC50 in test [3] amounted to 4.4 µM; against Acetylcholinesterase, 6.4 µM; on Cholinesterase, 11.7 µM.
`CCNc1nc(NCc2ccc(OC)c(OC)c2)c2ccccc2n1`: the figures for the IC50 against Acetylcholinesterase and at Cholinesterase were 6.3 µM and 25 µM, respectively.
Turning to `[N-]=[N+]=Nc1nc(NCc2ccccc2)c2ccccc2n1`, the inhibition in test [1] was over 50%; in test [2], 37%. Further, half-maximal inhibition in test [3] (IC50) required 2.6 µM.
In the case of `COc1ccc(CNc2nc(NC3CC3)nc3ccccc23)cc1OC`, the inhibition in test [1] was over 50%; in test [2] it was 20%. Also, the concentration for half-maximal inhibition (IC50) in test [3] was found to be 8.3 µM; at Acetylcholinesterase, 7.2 µM; at Cholinesterase, 29.8 µM.
Take `Oc1nc(NCCc2ccccc2)c2ccccc2n1`: in test [4], the Activity was found to be 51.5%. Besides, the inhibition in test [1] is over 50%. The compound also had a concentration for half-maximal inhibition (IC50) in [3] of 11.2 µM. Further, the inhibition entry in test [2] was “inactive”.
As to `Oc1ccc(/C=C/c2cc(O)cc(O)c2)cc1`, the Activity in [4] was determined as 41.9%.
In the case of `Nc1nc(NCc2ccccc2)c2ccccc2n1`, the results for the inhibition in test [1] and in test [2] were over 50% and under 10%, respectively.
As to `CCCNc1nc(NCc2ccccc2)c2ccccc2n1`, the inhibition in [1] was over 50%; in test [2], 26%. The figures for the IC50 (in [3]; against Acetylcholinesterase; at Cholinesterase) were 5 µM, 7.8 µM and 14.4 µM, respectively.
The corresponding values for `CNc1nc(NCCc2ccccc2)c2ccccc2n1` are over 50%, 40%, 2 µM, 8.7 µM and 5 µM.
On to `COc1ccc(CNc2nc(NC(N)=O)nc3ccccc23)cc1OC`, for which the inhibition in [1] is over 50%; in [2], 40%. For the same compound, the IC50 was 8.3 µM in test [3], 8.6 µM at Acetylcholinesterase and over 50 µM at Cholinesterase.
In the case of `COc1ccc(CCNc2nc(NC(C)=O)nc3ccccc23)cc1OC`, the results for the IC50 on Acetylcholinesterase and against Cholinesterase were 7.4 µM and over 50 µM, respectively.
As for `COc1ccc(CCNc2nc(NC(C)C)nc3ccccc23)cc1OC`, the 50% inhibitory concentration (IC50) against Acetylcholinesterase amounted to 7.6 µM; on Cholinesterase, 7.8 µM.
The like results for `CNc1nc(NCc2ccc(OC)c(OC)c2)c2ccccc2n1` were, in that order, 7.3 µM and 30.5 µM.
The corresponding values for `COc1ccc(CNc2nc(CC(N)=O)nc3ccccc23)cc1OC` are 7.4 µM and over 50 µM.
On to `COc1ccc(CNc2nc(NC(C)C)nc3ccccc23)cc1OC`, for which the concentration for half-maximal inhibition (IC50) against Acetylcholinesterase is 6.8 µM; against Cholinesterase, 29.8 µM.
Regarding `CCNc1nc(NCc2ccccc2)c2ccccc2n1`, the inhibition is over 50% in [1] and 24% in test [2]. Further, the IC50 in test [3] came to 7 µM; on Acetylcholinesterase, 7.5 µM; against Cholinesterase, 15.2 µM.
As for `COc1ccc(CCNc2nc(CC(N)=O)nc3ccccc23)cc1OC`, the IC50 against Acetylcholinesterase is 12.5 µM; against Cholinesterase, over 50 µM.
As to `CCNc1nc(NCCc2ccccc2)c2ccccc2n1`, the inhibition was over 50% in test [1], “Dose-dependent effect” in test [5] and 47% in [2]. The IC50 in test [3] is 1.4 µM; against Acetylcholinesterase it was 7.6 µM; against Cholinesterase, 3.2 µM. Further, in [6], the inhibition entry was “Active”.
Take `COc1ccc(CCNc2nc(N)nc3ccccc23)cc1OC`: the inhibition in test [1] is over 50%; in [2], 45%. In test [3], this compound yielded an IC50 of 2.7 µM.
`CNc1nc(NCc2ccccc2)c2ccccc2n1`: the IC50 against Acetylcholinesterase is 8 µM; at Cholinesterase, 18.8 µM.
`c1ccc(CCNc2ncnc3ccccc23)cc1`: the inhibition in [1] was over 50%; in [2], 32%. In test [3], this compound showed an IC50 of 11.9 µM.
Regarding `COc1ccc(CNc2nc(NC3CCN(Cc4ccccc4)CC3)nc3ccccc23)cc1OC`, the Ratio IC50 in test [7] turned out to be 1.3. Moreover, the figures for the inhibition in test [1] and in test [2] were over 50% and 27%, respectively. In test [3], this compound yielded an IC50 of 2.3 µM.
For `NC(=O)Nc1nc(NCCc2ccccc2)c2ccccc2n1`, the inhibition in [1] is over 50%; in test [5], “Dose-dependent effect”; in test [2], 46%. Further, the IC50 in test [3] is 1 µM; on Acetylcholinesterase, 7.9 µM; against Cholinesterase it was over 50 µM. Besides, in test [6], the inhibition entry is “Active”.
For `Clc1nc(NCc2ccccc2)c2ccccc2n1`, the inhibition in test [1] was over 50%; in test [2] it was 22%. Further, half-maximal inhibition in test [3] (IC50) required 16.7 µM.
As to `c1ccc(CNc2nc(NC3CC3)nc3ccccc23)cc1`, the results for the inhibition in test [1] and in test [2] were over 50% and 31%, respectively. Further, the values for the concentration for half-maximal inhibition (IC50) (in test [3]; on Acetylcholinesterase; against Cholinesterase) were 5.7 µM, 6.6 µM and 22 µM, respectively.
On to `CC(=O)Nc1nc(NCCc2ccccc2)c2ccccc2n1`, for which the IC50 on Acetylcholinesterase was 7 µM; against Cholinesterase, over 50 µM.
In the case of `CCCNc1nc(NCCc2ccc(OC)c(OC)c2)c2ccccc2n1`, the inhibition in test [1] is over 50%; in test [2] it was 14%. Moreover, the values for the IC50 (in test [3]; against Acetylcholinesterase; on Cholinesterase) were 4.3 µM, 7 µM and 24.9 µM, respectively.
The like results for `COc1ccc(CCNc2nc(NC(N)=O)nc3ccccc23)cc1OC` were, in that order, over 50%, 33%, 14.4 µM, 8.7 µM and over 50 µM.
The corresponding values for `CCCNc1nc(NCCc2ccccc2)c2ccccc2n1` are over 50%, 33%, 4.4 µM, 7.2 µM and 5 µM.
Regarding `COc1ccc(CCNc2nc(O)nc3ccccc23)cc1OC`, the Activity in test [4] was 33.9%. For the same compound, the results for the inhibition in test [1] and in [2] were over 50% and 32%, respectively. The compound further had an IC50 in [3] of 10.4 µM.
On to `NC(=O)Nc1nc(NCc2ccccc2)c2ccccc2n1`, for which the inhibition in test [1] was over 50%; in test [2] it was 48%. Further, the results for the IC50 (in test [3]; against Acetylcholinesterase; on Cholinesterase) were 13.3 µM, 8.3 µM and over 50 µM, respectively.
As to `Cc1c(C)c2c(c(C)c1O)CCC(C)(C(=O)O)O2` (stereo not given), the Activity in test [4] amounted to 99.6%.
As to `CNc1nc(NCCc2ccc(OC)c(OC)c2)c2ccccc2n1`, the inhibition is over 50% in test [1], “Dose-dependent effect” in [8] and 23.1% in [2]. Besides, the IC50 in test [3] was 6.6 µM; against Acetylcholinesterase it was 8.5 µM; on Cholinesterase, 4.5 µM. For the same compound, the inhibition result in [9] is “Active”.
As for `CCNc1nc(NCCc2ccc(OC)c(OC)c2)c2ccccc2n1`, the inhibition in test [1] is over 50%; in test [2], 41%. The values for the concentration for half-maximal inhibition (IC50) (in test [3]; on Acetylcholinesterase; against Cholinesterase) were 2.9 µM, 7.5 µM and 14 µM, respectively.
Regarding `COc1ccc(CCNc2ncnc3ccccc23)cc1OC`, the inhibition in test [1] is over 50%; in test [2], 36%. Further, the IC50 in test [3] was 12 µM.
As to `CC(=O)Nc1nc(NCc2ccccc2)c2ccccc2n1`, the inhibition in test [1] was over 50%; in test [2] it was 31%. The IC50 in [3] was 1.9 µM; against Acetylcholinesterase, 7.5 µM; on Cholinesterase, over 50 µM.
Turning to `NC(=O)Cc1nc(NCc2ccccc2)c2ccccc2n1`, the IC50 on Acetylcholinesterase is 7.2 µM; at Cholinesterase it was over 50 µM.
With `COc1ccc(CNc2nc(NC(C)=O)nc3ccccc23)cc1OC`, the inhibition in [1] was over 50%; in [2] it was under 10%. The IC50 in test [3] was 3.1 µM; on Acetylcholinesterase, 8.5 µM; at Cholinesterase, over 50 µM.
Regarding `COc1ccc(CNc2nc(N=[N+]=[N-])nc3ccccc23)cc1OC`, the inhibition in test [1] was over 50%; in test [2] it was under 10%. Further, in [3], it took 7.2 µM to reach half-maximal inhibition (IC50).
As for `NC(=O)Cc1nc(NCCc2ccccc2)c2ccccc2n1`, the IC50 amounted to 7.3 µM against Acetylcholinesterase and 3.5 µM at Cholinesterase.
As to `Clc1nc(NCCc2ccccc2)c2ccccc2n1`, the inhibition in test [1] is over 50%; in test [2], 36%. The IC50 in test [3] worked out at 5 µM.

Values taken from ChEMBL document CHEMBL4002588, “2,4-Disubstituted quinazolines as amyloid-β aggregation inhibitors with dual cholinesterase inhibition and antioxidant properties: Development and structure-activity relationship (SAR) studies” (Eur J Med Chem, 2017).
